The target of assay [1] is T1, GDP-loaded KRAS4b (amino acids 1-169) G12C/C118S protein (Homo sapiens, UniProt P01116, C118S/G12C).
T1 construct: KRAS4b (amino acids 1-169) G12C/C118S protein; made in house
Kind of assay: Covalent cysteine 12 modification by MALDI-TOF MS, GDP-loaded KRAS G12C. The class given is binding. Conditions: 15 minutes reaction time point. As for the experimental part:
(§1) Reaction: 1 μM of GppNHp-, GTP-, or GDP-loaded KRAS4b (amino acids 1-169) G12C/C118S protein (produced in-house by Protein Expression Laboratory, FNLCR/Leidos Biomed) in 20 mM 4-(2-hydroxyethyl)-1-piperazineethanesulfonic acid (HEPES) buffer containing 150 mM NaCl, 1 mM MgCl2, pH 7.3 was prepared freshly before assay. Ten-μL aliquots of protein were dispensed onto low volume 384-well plate, then 375 nL DMSO, and 25 nL of tested compounds from 5 mM DMSO stocks were added to appropriate wells using ECHO 555 acoustic liquid handler (Labcyte Inc.). For each reaction/assay, three blanks were prepared by mixing 10 μL of protein solution with 400 nL DMSO. The contents of the wells were carefully mixed by aspiration, and then each plate was sealed with an adhesive cover, centrifuged at 2000 g for 1 minute, and kept in the dark at room temperature until 5 min, 15 min, 30 min, or 2 h collections.
(§2) Target pretreatment: Before each assay MALDI target (Bruker MPT 384 ground steel BC) was pre-treated by pipetting on each spot 0.75 μL of saturated sinapinic acid in acetonitrile (ACN).
(§3) Sample preparation: At collection time point, 2 μL of reaction mixtures were pipetted out into 20 μL MALDI matrix solution (saturated solution of sinapinic acid in 1:1 ACN:water solution containing 0.75% trifluoroacetic acid (TFA)) deposited on 384 well polypropylene plate. Resulting solution was mixed by aspiration, centrifuged at 2000 g for 1 minute, then 1 μL aliquots were dispensed on pre-treated MALDI target using Beckman Coulter Biomek FXP 96/384-Span-8 Laboratory Automation Workstation. Finally, the MALDI target was dried under mild vacuum to produce spots with fine crystalline structure.
(§4) Measurements: MALDI-TOF measurements were performed on a Bruker Daltonics rapiflex Tissuetyper TOF-TOF mass spectrometer using linear mode and mass range from 18.6 to 21.6 kDa. Detector gain was set to 3.3× (483 V), sample rate to 5 GS/s, real time smoothing to medium (175 MHz), laser smart beam pattern was set to: “MS Thin Layer M5”, and the laser frequency was 10000 Hz. Spectra were automatically collected using custom Auto Xecute method. Laser power was auto adjusted using fuzzy control. The peak selection range was set to be between 19000 and 21500 Da. Peak evaluation uses half width parameter set to be smaller than 40 Da for processed spectrograms (centroid peak detection; smoothed by SavitzkyGolay algorithm using 7 m/z width and 2 cycles; baseline was subtracted using median algorithm with flatness 1 and median level 0.01). Fuzzy control used Proteins/Oligonucleotides protocol with minimum half width 1/10 times above threshold. Up to 40000 satisfactory shots were collected in 10000 shot steps. Dynamic termination was implemented to finish data collection when peak signal/noise ratio was reaching value of 50.
(§5) Spectra processing: Spectra were smoothed by SavitzkyGolay algorithm using 7 m/z width and three cycles. Centroid peak detection algorithm was used with signal to noise threshold set to 6, relative intensity threshold 4%, peak width 10 m/z and median baseline subtraction using flatness of 1 and median level of 0.01. Peak intensity and area under the peak were evaluated and recorded for all peaks between 19,300 Da and 21,550 Da.
(§6) Calculation of percent modification: Percent modification was calculated as a ratio of peak height for protein modified by compound to sum of peak height of remaining protein plus peak height for protein modified by compound. If multiple modifications were observed each was calculated as a ratio of peak height for given modification versus sum of peak heights for all observed protein species. Data reported in Table 5 are from 15 minutes reaction time point.

Assay [2] concerns pERK in NCI-H358 cells. The experiment in a line: Cell-based pERK HTRF assay. The note with it: 30 min incubation, read-out: pERK in NCI-H358 cell inhibition IC50. As for the experimental part:
pERK assays (Perkin Elmer) were used to determine the effectiveness of compounds of the present disclosure in disrupting KRAS G12C protein/effector signaling in cells.
On Day 1, cells (NCI-H358) were seeded into 96-well plates at 4×10^4 cells/well in complete growth media (RPMI, 10% FBS).
On Day 2, cells were treated with compounds at 0.25% DMSO. The source plate was created with compounds diluted in media at 5-fold the final assay concentration. The compounds were run in a 9-point concentration curve starting at 75 μM, with a 3-fold dilution between concentrations. 20 μL was transferred onto the cell plates (final volume in wells was 100 μL). Plates were harvested after 30 min incubation by aspirating media and adding kit-supplied 1× supplemented lysis buffer to all wells (75 μl per well). Plates were then placed on a plate shaker and incubated at 850 rpm for an additional 30 min.
Antibody mixture solution was prepared by diluting aliquoted d2 and Eu Cryptate antibodies 1:20 in kit supplied detection buffer, then mixed the diluted antibodies solutions (1:1 v:v). 4 μL of this solution was then added to a 384-well detection plate (Perkin Elmer; 6008230).
Samples were homogenized by pipetting up and down and then transferred (16 μL of cell lysates) from the 96-well cell culture plate to two wells of the HTRF 384-well detection plate containing the antibody solution. Plates were centrifuged (524 g for Imin) and allowed to incubate between 4 and 24 h at room temperature. Maximum signal is reached after 4 h incubation time and remains stable over a period of 24 hours. Therefore, readings can be made between 4 and 24 h of incubation. Plates were centrifuged again (524 g for Imin) and analyzed on the En Vision plate reader using the following settings: Excitation 320 nm, Bandwidth 75 nm; Emission 615 nm, Bandwidth 85 nm; Gain 100%; Flashes 100; Lag 60 μs.
For orientation: Time-resolved FRET reads energy transfer from a long-lived donor to a nearby acceptor.

Assay [3] deals with T2, GppNHp-loaded KRAS4b (amino acids 1-169) G12C/C118S protein (Homo sapiens, UniProt P01116, C118S/G12C).
T2 construct: KRAS4b (amino acids 1-169) G12C/C118S protein; made in house
The experiment in a line: Covalent cysteine 12 modification by MALDI-TOF MS, GppNHp-loaded KRAS G12C. The class given is binding. Conditions: 15 minutes reaction time point. The method, then: as §1, §2, §3, §4, §5, §6

The target in assay [4] is T3, Avi-KRAS G12C (1-169) GppNHp/RAF1 RBD-3×FLAG (52-151) (Homo sapiens, UniProt P01116, G12C).
T3 construct: Avi-KRAS G12C (1-169) GppNHp/RAF1 RBD-3×FLAG (52-151)
The experiment in a line: Raf1 RBD-KRAS G12C-GppNHp disruption (protein:protein interaction HTRF assay). The class given is biochemical. The method, then:
A protein: protein (PPI) interaction Homogeneous Time Resolved Fluorescence (HTRF) assay was used to determine the effectiveness of compounds of the present disclosure in disrupting KRAS G12C protein and effector (RAF1 or PIK3CA) binding.
The HTRF assay used the following reagents and proteins: 50 nM Avi-KRAS G12C Q25A (1-169) GppNHp/3×FLAG-PI3K CA (157-299); 50 nM Avi-KRAS G12C (1-169) GppNHp/RAF1 RBD-3×FLAG (52-151); 35 nM Avi-PI3K RBD-3×FLAG; Assay Buffer: 50 mM Tris pH 7.5, 100 mM NaCl, 5 mM MgCl2, 0.1% BSA, 0.01% Tween 20, 10% DMSO; Bead Buffer: 50 mM Tris pH 7.5, 0.01% Tween 20; Assay volume: 20 μL (384 well plate-low volume format); and Compound titration: 30-0.02 μM, 3× dilution series.
The HTRF assay employed the following protocol:
Compounds were dispensed in assay plate (384-well, Grenier Bione #784075) using Echo (model 555) with dose response settings: 200 nL final volume, titration from 100 μM as a 10-point dilution series. KRAS proteins were prepared in assay buffer, and dispensed on plates, 5 μL per well, then incubated for 1 h at room temperature, with 700 rpm shaking. RAF1 RBD and PI3K RBD CA were prepared in assay buffer, dispensed onto plates, 5 μL per well, and then incubated for 1 h at room temperature, with 700 rpm shaking. Reagent mix was then prepared and dispensed on plates, 10 μL per well, and then incubated for 1 h at room temperature, with 700 rpm shaking.
Plates were analyzed on an Envision plate reader using the following setting: Excitation 320 nm, Bandwidth 75 nm; Emission 615 nm, Bandwidth 85 nm; Gain 100%; Flashes 100; Lag 60 μs. Data was reported as percentage of activity, with DMSO as 100%. Data was plotted and analyzed using Prism 8.

SMILES strings stand for the structures. pIC50: −log10 of the molar value. Where two headings read alike, the source gives them in different places. Bounds are passed on as bounds.

We go through nine compounds from patent publication US20250188085A1, “COMPOSITIONS AND METHODS FOR INHIBITION OF RAS” (THERAS, INC., priority 2022, published 2025).

What is called pIC50 is the IC50 on a negative log10 scale, so that one unit is a factor of ten.

On to `C=CC(=O)N1CC[C@@H](Oc2nc(OC[C@@H]3C[C@@H](OC)CN3C)nc3c(F)c(-c4ccc(F)c5sc(N)nc45)c(C(F)(F)F)cc23)C1` (single isomer, unassigned) [Compound 15], for which the “GDP-KRAS G12C percent of modification” value in assay [1] is listed as “D (percent of modification <10%)”. Moreover, the pIC50 in assay [2] is under 6.00; in assay [4], under 4.70. For the same compound, in assay [3], the “GppNHp-KRAS G12C percent of modification” value was “D (percent of modification <10%)”.

With `C=CC(=O)N1CC[C@@H](Oc2nc(OC[C@@H]3C[C@@H](F)CN3C)nc3c(F)c(-c4ccc(F)c5sc(N)nc45)c(C(F)(F)F)cc23)C1` (atropisomer, axis not shown) [Compound 18], the “GDP-KRAS G12C percent of modification” value in assay [1] is listed as “A (percent of modification ≥70%)”. For the same compound, the pIC50 in assay [2] is at least 7.00; in assay [4], at least 6.30. Further, the “GppNHp-KRAS G12C percent of modification” value in assay [3] is given as “C (10%≤modification <50%)”.

For the compound `C=CC(=O)N1CC[C@H](Oc2nc(OC[C@@]34CCCN3C[C@H](F)C4)nc3c(F)c(-c4ccc(F)c5sc(N)nc45)c(Cl)cc23)C1` (atropisomer, axis not shown) [Compound 4], in assay [1], the “GDP-KRAS G12C percent of modification” value is given as “D (percent of modification <10%)”. For the same compound, the pIC50 in assay [2] (Homo sapiens, NCI-H358, 0.5 h) was under 6.00; in assay [4], under 4.70. Also, the “GppNHp-KRAS G12C percent of modification” value in assay [3] is on record as “D (percent of modification <10%)”.

As to `C=CC(=O)N1CCC[C@@H](Oc2nc(OC[C@@H]3C[C@@H](F)CN3C)nc3c(F)c(-c4ccc(F)c5sc(N)nc45)c(C(F)(F)F)cc23)C1` (atropisomer, axis not shown) [Compound 21], in assay [1], the “GDP-KRAS G12C percent of modification” value is “D (percent of modification <10%)”. Besides, the pIC50 in assay [2] was under 6.00; in assay [4] it was under 4.70. For the same compound, in assay [3], the “GppNHp-KRAS G12C percent of modification” value is on record as “D (percent of modification <10%)”.

Consider `C=CC(=O)N1CC[C@@H](Oc2nc(OC[C@@]34CCCN3C[C@H](F)C4)nc3c(F)c(-c4ccc(F)c5sc(N)nc45)c(C(F)(F)F)cc23)[C@H]1C` [Compound 29, 1-((2R,3R)-3-((7-(2-amino-7-fluorobenzo[d]thiazol-4-yl)-8-fluoro-2-(((2R,7aS)-2-fluorotetrahydro-1H-pyrrolizin-7a (5H)-yl)methoxy)-6-(trifluoromethyl)quinazolin-4-yl)oxy)-2-methylpyrrolidin-1-yl) prop-2-en-1-one], for which the “GDP-KRAS G12C percent of modification” value in assay [1] is reported as “A (percent of modification ≥70%)”. The pIC50 was at least 7.00 in assay [2] (Homo sapiens, NCI-H358, 0.5 h) and at least 6.30 in assay [4]. The “GppNHp-KRAS G12C percent of modification” value in assay [3] is listed as “A (percent of modification ≥70%)”.

Consider `C=CC(=O)N1CC[C@@H](Oc2nc(OC[C@@]34CCCN3C[C@H](F)C4)nc3c(F)c(-c4ccc(F)c5sc(N)nc45)c(C(F)(F)F)cc23)C1` (single isomer, unassigned) [Compound 11], for which the “GDP-KRAS G12C percent of modification” value in assay [1] is reported as “A (percent of modification ≥70%)”. For the same compound, the pIC50 in assay [2] (Homo sapiens, NCI-H358, 0.5 h) is at least 7.00; in assay [4] it was at least 6.30. The “GppNHp-KRAS G12C percent of modification” value in assay [3] is “A (percent of modification ≥70%)”.

Consider `C=CC(=O)N1CC[C@@H](Oc2nc(OC[C@]34CCCN3C[C@H](OC)C4)nc3c(F)c(-c4ccc(F)c5sc(N)nc45)c(C(F)(F)F)cc23)C1` (single isomer, unassigned) [Compound 30], for which, in assay [1], the “GDP-KRAS G12C percent of modification” value is listed as “A (percent of modification ≥70%)”. In addition, the pIC50 is at least 7.00 in assay [2] and at least 6.30 in assay [4]. In addition, the “GppNHp-KRAS G12C percent of modification” value in assay [3] was “A (percent of modification ≥70%)”.

Consider `C=CC(=O)N1CC[C@H](Oc2nc(OC[C@@]34CCCN3C[C@H](F)C4)nc3c(F)c(-c4ccc(F)c5sc(N)nc45)c(C(F)(F)F)cc23)C1` (atropisomer, axis not shown) [Compound 5], for which the “GDP-KRAS G12C percent of modification” value in assay [1] was “D (percent of modification <10%)”. The pIC50 in assay [2] is under 6.00; in assay [4], 4.70 to 5.30. Further, in assay [3], the “GppNHp-KRAS G12C percent of modification” value was “D (percent of modification <10%)”.

With `C=CC(=O)N1C[C@H](Oc2nc(OC[C@@]34CCCN3C[C@H](F)C4)nc3c(F)c(-c4ccc(F)c5sc(N)nc45)c(C(F)(F)F)cc23)[C@@H](F)C1` [Compound 28, 1-((3S,4S)-3-((7-(2-amino-7-fluorobenzo[d]thiazol-4-yl)-8-fluoro-2-(((2R,7aS)-2-fluorotetrahydro-1H-pyrrolizin-7a (5H)-yl)methoxy)-6-(trifluoromethyl)quinazolin-4-yl)oxy)-4-fluoropyrrolidin-1-yl) prop-2-en-1-one], the “GDP-KRAS G12C percent of modification” value in assay [1] is given as “A (percent of modification ≥70%)”. Also, the pIC50 in assay [2] (Homo sapiens, NCI-H358, 0.5 h) is at least 7.00; in assay [4], at least 6.30. Also, the “GppNHp-KRAS G12C percent of modification” value in assay [3] is reported as “A (percent of modification ≥70%)”.
